In data set [1] the target is T1, FXR (NR1H4) (Homo sapiens, UniProt Q96RI1).
T1 sequence (Q96RI1 1-486): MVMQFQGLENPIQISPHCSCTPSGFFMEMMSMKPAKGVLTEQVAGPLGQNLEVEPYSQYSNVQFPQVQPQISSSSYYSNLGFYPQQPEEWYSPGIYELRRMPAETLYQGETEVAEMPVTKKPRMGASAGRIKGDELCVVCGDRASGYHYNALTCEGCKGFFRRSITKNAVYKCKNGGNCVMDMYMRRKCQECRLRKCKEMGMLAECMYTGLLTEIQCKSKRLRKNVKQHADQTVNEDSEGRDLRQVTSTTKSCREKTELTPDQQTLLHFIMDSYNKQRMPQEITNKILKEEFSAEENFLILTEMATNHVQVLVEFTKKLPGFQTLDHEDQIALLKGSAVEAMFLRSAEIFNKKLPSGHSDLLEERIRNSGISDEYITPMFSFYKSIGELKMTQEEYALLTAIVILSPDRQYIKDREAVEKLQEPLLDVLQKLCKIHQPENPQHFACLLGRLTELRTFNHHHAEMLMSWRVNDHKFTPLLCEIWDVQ
Description: ATG_FXR_TRANS: Factorial reporter gene assay (HepG2). In kind it is cell-based. On the set-up: expressed in transfected cells; host or cells: HepG2; scale not given here. The following applies: scale not given, looks like -log10 of molar active concentration, 0 = no activity. Here is the method: (§1) A multiple reporter transcription unit (MRTU) library consisting of 48 transcription factor binding sites was transfected into the HepG2 human liver hepatoma cell line. In addition to the cis-acting reporter genes (CIS), a modification of the approach was used to generate a trans-system (TRANS) with a mammalian one-hybrid assay consisting of an additional 25 MRTU library reporting the activity of nuclear receptor super-family members. […] These assays were performed by Attagene Inc. (Morrisville NC) under contract to EPA.
(§2) In addition to the cis-acting reporter genes (CIS), a modification of the approach was used to generate a trans-system (TRANS) with a mammalian one-hybrid assay consisting of an additional 25 MRTU library reporting the activity of nuclear receptor super-family members. […] Chemicals were then tested in the CIS and TRANS assays at seven concentrations starting at the MTC and followed by three-fold serial dilutions. These assays were performed by Attagene Inc. (Morrisville NC) under contract to EPA. Detailed description of the methods, data and analysis methods for this dataset will be presented in a separate publication.

For data set [2], the target named is T2, ESRRA (estrogen-related receptor alpha) (Homo sapiens, UniProt P11474).
T2 construct: expressed in transfected cells; host or cells: HepG2
T2 sequence (P11474 1-423): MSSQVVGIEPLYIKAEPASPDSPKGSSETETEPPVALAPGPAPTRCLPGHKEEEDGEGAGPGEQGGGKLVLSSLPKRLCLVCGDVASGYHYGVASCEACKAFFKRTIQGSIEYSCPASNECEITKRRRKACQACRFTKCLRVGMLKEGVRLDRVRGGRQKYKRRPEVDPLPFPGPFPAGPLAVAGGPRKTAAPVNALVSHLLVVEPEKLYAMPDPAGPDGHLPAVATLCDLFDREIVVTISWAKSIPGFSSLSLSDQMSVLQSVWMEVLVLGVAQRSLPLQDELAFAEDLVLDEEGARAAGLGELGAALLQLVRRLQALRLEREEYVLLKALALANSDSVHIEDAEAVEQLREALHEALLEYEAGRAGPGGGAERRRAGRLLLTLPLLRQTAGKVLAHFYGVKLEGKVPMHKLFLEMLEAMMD
Description: ATG_ERRa_TRANS: Factorial reporter gene assay (HepG2). In kind it is cell-based. The following applies: scale not given, looks like -log10 of molar active concentration, 0 = no activity. Here is the method:
as §1, §2

Data set [3] has as its target T1, FXR (NR1H4). Kind of data set: NVS_NR_hFXR: Human FXR CDCA (cell-free HTS). In kind it is binding. The following applies: scale not given, looks like -log10 of molar active concentration, 0 = no activity. From the text: (§3) These are a collection of biochemical assays measuring binding constants and enzyme inhibition values. Chemicals were initially screened at a single concentration in duplicate wells at a concentration of 10 [drawing 63] M for cytochrome P-450 assays and 25 [drawing 64] M for all others. […] These assays were run by Caliper Life Sciences (Hanover, MD) under contract to EPA. Short assay descriptions are available at: http://www.caliperls.com/products/contract-research/in-vitro/.
(§4) Cell-free HTS Assays: A collection of biochemical assays measuring binding constants and enzyme inhibition values. […] These assays were run by Caliper Life Sciences (Hanover, MD) under contract to EPA. Short assay descriptions are available at http://www.caliperls.com/products/contract-research/in-vitro/. Values for all endpoints were imported into GeneData Screener (Basel, Switzerland) and normalised to solvent controls from the same plate as the tested compounds and expressed as percent of neutral control. Concentration-response curves were fit in GeneData Screener (Basel, Switzerland) Condeseo module using the Hill equation and AC50 values were determined. […] Detailed description of the methods, data and analysis methods for this dataset are described in a separate publication.

The target in a further data set is T3, CAR (NR1I3) (Homo sapiens, UniProt Q14994).
T3 sequence (Q14994 1-352): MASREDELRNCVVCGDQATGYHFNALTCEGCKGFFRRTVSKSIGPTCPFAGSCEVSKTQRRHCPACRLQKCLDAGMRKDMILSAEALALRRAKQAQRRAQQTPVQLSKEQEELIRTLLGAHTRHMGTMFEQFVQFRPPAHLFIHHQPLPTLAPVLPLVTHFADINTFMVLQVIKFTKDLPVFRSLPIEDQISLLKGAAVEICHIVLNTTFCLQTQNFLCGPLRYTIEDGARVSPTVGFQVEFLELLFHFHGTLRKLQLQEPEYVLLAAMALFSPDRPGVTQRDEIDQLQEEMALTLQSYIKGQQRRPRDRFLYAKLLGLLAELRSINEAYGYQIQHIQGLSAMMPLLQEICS
Kind of data set: NVS_NR_hCAR: Human CAR CITCO (cell-free HTS). In kind it is binding. The following applies: scale not given, looks like -log10 of molar active concentration, 0 = no activity.
Text: as §3, §4

The target of data set [4] is T4, ESRRG (estrogen-related receptor gamma) (Homo sapiens, UniProt P62508).
T4 construct: expressed in transfected cells; host or cells: HepG2
T4 sequence (P62508 1-458): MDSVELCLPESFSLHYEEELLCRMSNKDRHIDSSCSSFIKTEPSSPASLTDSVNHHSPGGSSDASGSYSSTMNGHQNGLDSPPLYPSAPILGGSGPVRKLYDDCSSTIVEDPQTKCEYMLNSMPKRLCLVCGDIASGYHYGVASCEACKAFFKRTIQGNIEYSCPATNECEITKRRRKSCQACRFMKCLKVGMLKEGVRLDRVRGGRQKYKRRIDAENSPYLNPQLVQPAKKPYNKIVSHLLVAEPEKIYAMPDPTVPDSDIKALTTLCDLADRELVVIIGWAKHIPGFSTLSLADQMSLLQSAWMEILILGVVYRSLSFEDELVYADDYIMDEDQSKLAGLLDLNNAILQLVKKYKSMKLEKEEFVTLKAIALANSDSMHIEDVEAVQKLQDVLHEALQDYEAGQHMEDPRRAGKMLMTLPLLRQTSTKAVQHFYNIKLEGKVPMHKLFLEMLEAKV
Description: ATG_ERRg_TRANS: Factorial reporter gene assay (HepG2). In kind it is cell-based. On the set-up: scale not given here. The following applies: HepG2; scale not given, looks like -log10 of molar active concentration; 0 = no activity. Here is the method: as §1, §2

Data set [5] has as its system Mouse Liver. The following applies: mouse chronic study, liver, any lesion; coded 6 / Inf / 0, code not explained here; ref ToxRefDB; cited from earlier work.
In data set [6] the test system is Mouse Liver. The following applies: mouse chronic study, liver, preneoplastic lesion; coded 6 / Inf / 0, code not explained here; ref ToxRefDB; cited from earlier work.

On to `COC(=O)c1ccccc1CS(=O)(=O)NC(=O)Nc1nc(OC)cc(OC)n1` [r33], for which the ATG_FXR_TRANS on FXR (NR1H4) [1] was 0. The compound also came in with an ATG_ERRa_TRANS in data set [2] of 0. In addition, the NVS_NR_hFXR on FXR (NR1H4) [3] came to 0. This compound also came in with an NVS_NR_hCAR at CAR (NR1I3) of 0. The compound further came in with an ATG_ERRg_TRANS in data set [4] of 0.

In the case of `COc1ccc(-c2ccccc2)cc1NNC(=O)OC(C)C` [r38], in the data set with Mouse Liver [5], the CHR_Mouse_Liver_1_AnyLesion is reported as 6. The ATG_FXR_TRANS on FXR (NR1H4) [1] came to 0. Besides, the ATG_ERRa_TRANS in data set [2] was 0. On FXR (NR1H4) [3], this compound registered an NVS_NR_hFXR of 0. Moreover, in the data set with Mouse Liver [6], the CHR_Mouse_Liver_2_PreneoplasticLesion was 6. The compound further registered an NVS_NR_hCAR at CAR (NR1I3) of 0. This compound also had an ATG_ERRg_TRANS in data set [4] of 4.469.

`OB(O)O` [r41] registered an ATG_FXR_TRANS at FXR (NR1H4) [1] of 0. The compound also showed an ATG_ERRa_TRANS in data set [2] of 0. Also, the NVS_NR_hFXR at FXR (NR1H4) [3] is on record as 0. Moreover, the NVS_NR_hCAR on CAR (NR1I3) is recorded as 0. Further, the ATG_ERRg_TRANS in data set [4] is recorded as 0.

As for `CCC(C)n1c(=O)[nH]c(C)c(Br)c1=O` (stereo not drawn) [r43], the CHR_Mouse_Liver_1_AnyLesion in the data set with Mouse Liver [5] is reported as 6. On FXR (NR1H4) [1], this compound returned an ATG_FXR_TRANS of 0. The compound further had an ATG_ERRa_TRANS in data set [2] of 0. At FXR (NR1H4) [3], this compound displayed an NVS_NR_hFXR of 0. For the same compound, in the data set with Mouse Liver [6], the CHR_Mouse_Liver_2_PreneoplasticLesion is listed as 6. The NVS_NR_hCAR at CAR (NR1I3) is on record as 0. The same compound showed an ATG_ERRg_TRANS in data set [4] of 0.

Turning to `N#Cc1cc(Br)c(O)c(Br)c1` [r44], the CHR_Mouse_Liver_1_AnyLesion with Mouse Liver [5] is 6. For the same compound, the ATG_FXR_TRANS on FXR (NR1H4) [1] came out at 0. Besides, the ATG_ERRa_TRANS in data set [2] is recorded as 0. Moreover, on FXR (NR1H4) [3], the NVS_NR_hFXR is recorded as 0. In the data set with Mouse Liver [6], the CHR_Mouse_Liver_2_PreneoplasticLesion is 6. Moreover, at CAR (NR1I3), the NVS_NR_hCAR stood at 0. For the same compound, the ATG_ERRg_TRANS in data set [4] was determined as 0.

The compound `CCCCOCN(C(=O)CCl)c1c(CC)cccc1CC` [r46] registered an ATG_FXR_TRANS at FXR (NR1H4) [1] of 0. Also, the ATG_ERRa_TRANS in data set [2] came out at 0. The NVS_NR_hFXR at FXR (NR1H4) [3] was 0. For the same compound, the NVS_NR_hCAR at CAR (NR1I3) is reported as 0. The ATG_ERRg_TRANS in data set [4] is 0.

The values are drawn from article PMC3038857, “Using Nuclear Receptor Activity to Stratify Hepatocarcinogens” (PLoS ONE, 2011).
